Assay results: article PMC10382584, “Macrocyclization of linear molecules by deep learning to facilitate macrocyclic drug candidates discovery” (Nature Communications, 2023)

What was measured:
Experiment in all cases: biochemical
Design in all cases: DiscoveRx KINOMEscan competition binding, percent of DMSO control signal at 100 nM
Conditions in all cases: read-out: Fig. 4a / Percent Control / Compound 1; percent of DMSO control, competition binding
BLK = BLK (Homo sapiens, UniProt P51451)
MAP4K3 = MAP4K3 (Homo sapiens, UniProt Q8IVH8)
PKN1 = PKN1 (Homo sapiens, UniProt Q16512)
SRMS = SRMS (Homo sapiens, UniProt Q9H3Y6)
RIOK1 = RIOK1 (Homo sapiens, UniProt Q9BRS2)
Sequence of RIOK1 (Q9BRS2 whole entry): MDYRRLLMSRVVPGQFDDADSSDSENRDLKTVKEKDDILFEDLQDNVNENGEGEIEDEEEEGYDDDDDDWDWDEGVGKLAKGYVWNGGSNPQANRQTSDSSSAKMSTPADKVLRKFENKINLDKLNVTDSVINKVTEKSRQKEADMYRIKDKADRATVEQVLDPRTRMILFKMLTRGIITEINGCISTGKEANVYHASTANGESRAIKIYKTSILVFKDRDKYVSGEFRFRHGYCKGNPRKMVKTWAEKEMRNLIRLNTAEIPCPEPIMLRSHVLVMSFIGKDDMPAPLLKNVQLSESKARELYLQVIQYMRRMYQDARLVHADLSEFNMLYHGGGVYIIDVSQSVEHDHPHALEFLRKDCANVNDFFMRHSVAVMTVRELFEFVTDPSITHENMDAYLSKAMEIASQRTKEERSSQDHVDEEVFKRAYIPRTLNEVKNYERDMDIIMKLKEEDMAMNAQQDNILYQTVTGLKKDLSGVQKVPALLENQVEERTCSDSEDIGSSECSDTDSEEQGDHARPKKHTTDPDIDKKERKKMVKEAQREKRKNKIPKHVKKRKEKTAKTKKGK

FGFR1 = FGFR1 (Homo sapiens, UniProt P11362)
CDKL2 = CDKL2 (Homo sapiens, UniProt Q92772)
MAK = MAK (Homo sapiens, UniProt P20794)
PIM1 = PIM1 (Homo sapiens, UniProt P11309)
[1] = target: T1, TYK2(JH1domain-catalytic) (Homo sapiens, UniProt P29597)
T1 construct: JH1domain-catalytic

DLK = target: T2, DLK (Homo sapiens, UniProt Q12852)
T2 construct: gene MAP3K12
T2 sequence (Q12852 whole entry): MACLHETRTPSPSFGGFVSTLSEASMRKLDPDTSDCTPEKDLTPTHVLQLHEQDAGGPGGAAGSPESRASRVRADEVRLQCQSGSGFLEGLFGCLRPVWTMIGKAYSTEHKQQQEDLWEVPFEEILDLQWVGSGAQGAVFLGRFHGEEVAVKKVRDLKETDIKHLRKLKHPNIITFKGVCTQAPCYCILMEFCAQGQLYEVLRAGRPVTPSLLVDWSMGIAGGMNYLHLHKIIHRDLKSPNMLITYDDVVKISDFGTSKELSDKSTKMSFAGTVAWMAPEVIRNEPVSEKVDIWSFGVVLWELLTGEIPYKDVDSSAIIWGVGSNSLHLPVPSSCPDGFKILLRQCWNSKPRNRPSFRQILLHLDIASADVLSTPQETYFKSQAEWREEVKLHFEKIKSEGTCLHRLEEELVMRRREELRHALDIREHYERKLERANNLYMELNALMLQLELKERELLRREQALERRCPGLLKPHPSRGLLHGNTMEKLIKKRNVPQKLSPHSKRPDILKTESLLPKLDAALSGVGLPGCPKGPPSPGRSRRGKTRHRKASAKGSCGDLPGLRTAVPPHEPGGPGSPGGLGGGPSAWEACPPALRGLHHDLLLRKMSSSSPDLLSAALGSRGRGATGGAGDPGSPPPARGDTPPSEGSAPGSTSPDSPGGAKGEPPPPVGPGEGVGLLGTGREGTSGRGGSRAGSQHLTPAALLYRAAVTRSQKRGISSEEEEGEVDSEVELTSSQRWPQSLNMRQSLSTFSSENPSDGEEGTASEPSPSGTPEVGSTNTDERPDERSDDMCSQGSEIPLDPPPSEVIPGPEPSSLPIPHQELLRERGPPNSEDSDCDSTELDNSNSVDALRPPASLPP

CSNK1E = CSNK1E (Homo sapiens, UniProt P49674)
AAK1 = AAK1 (Homo sapiens, UniProt Q2M2I8)
CDK11 = target: T3, CDK11 (Homo sapiens, UniProt Q9BWU1)
T3 construct: gene CDK19

KIT(L576P) = KIT(L576P) (Homo sapiens, UniProt P10721, L576P)
Sequence of KIT(L576P) (P10721 whole entry L576P): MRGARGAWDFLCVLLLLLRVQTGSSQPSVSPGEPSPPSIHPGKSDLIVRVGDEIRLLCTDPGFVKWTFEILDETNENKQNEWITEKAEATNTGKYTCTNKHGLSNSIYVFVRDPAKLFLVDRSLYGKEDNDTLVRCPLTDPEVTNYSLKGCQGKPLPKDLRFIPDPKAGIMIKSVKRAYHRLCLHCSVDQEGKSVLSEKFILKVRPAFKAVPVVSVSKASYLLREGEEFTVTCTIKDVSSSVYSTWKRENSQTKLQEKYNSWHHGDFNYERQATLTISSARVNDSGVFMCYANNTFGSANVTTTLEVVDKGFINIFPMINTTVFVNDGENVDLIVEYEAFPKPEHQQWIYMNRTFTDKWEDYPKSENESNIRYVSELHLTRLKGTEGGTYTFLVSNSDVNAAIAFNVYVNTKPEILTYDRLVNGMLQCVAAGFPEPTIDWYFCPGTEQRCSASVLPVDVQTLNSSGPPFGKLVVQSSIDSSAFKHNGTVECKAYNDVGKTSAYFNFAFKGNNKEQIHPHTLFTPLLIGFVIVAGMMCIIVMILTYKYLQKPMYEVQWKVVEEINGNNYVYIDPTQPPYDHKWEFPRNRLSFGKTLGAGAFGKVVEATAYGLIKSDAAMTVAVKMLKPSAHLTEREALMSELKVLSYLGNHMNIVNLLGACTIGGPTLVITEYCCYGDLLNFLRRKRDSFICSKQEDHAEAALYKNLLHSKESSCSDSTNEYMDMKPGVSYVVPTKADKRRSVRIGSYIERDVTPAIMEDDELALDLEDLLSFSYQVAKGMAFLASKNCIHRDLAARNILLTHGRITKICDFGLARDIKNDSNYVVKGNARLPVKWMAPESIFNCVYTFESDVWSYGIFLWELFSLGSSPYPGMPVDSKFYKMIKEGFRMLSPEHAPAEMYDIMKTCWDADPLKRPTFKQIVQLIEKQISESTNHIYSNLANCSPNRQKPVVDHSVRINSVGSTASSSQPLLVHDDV

HIPK1 = HIPK1 (Homo sapiens, UniProt Q86Z02)
EPHA7 = EPHA7 (Homo sapiens, UniProt Q15375)
Sequence of EPHA7 (Q15375 whole entry): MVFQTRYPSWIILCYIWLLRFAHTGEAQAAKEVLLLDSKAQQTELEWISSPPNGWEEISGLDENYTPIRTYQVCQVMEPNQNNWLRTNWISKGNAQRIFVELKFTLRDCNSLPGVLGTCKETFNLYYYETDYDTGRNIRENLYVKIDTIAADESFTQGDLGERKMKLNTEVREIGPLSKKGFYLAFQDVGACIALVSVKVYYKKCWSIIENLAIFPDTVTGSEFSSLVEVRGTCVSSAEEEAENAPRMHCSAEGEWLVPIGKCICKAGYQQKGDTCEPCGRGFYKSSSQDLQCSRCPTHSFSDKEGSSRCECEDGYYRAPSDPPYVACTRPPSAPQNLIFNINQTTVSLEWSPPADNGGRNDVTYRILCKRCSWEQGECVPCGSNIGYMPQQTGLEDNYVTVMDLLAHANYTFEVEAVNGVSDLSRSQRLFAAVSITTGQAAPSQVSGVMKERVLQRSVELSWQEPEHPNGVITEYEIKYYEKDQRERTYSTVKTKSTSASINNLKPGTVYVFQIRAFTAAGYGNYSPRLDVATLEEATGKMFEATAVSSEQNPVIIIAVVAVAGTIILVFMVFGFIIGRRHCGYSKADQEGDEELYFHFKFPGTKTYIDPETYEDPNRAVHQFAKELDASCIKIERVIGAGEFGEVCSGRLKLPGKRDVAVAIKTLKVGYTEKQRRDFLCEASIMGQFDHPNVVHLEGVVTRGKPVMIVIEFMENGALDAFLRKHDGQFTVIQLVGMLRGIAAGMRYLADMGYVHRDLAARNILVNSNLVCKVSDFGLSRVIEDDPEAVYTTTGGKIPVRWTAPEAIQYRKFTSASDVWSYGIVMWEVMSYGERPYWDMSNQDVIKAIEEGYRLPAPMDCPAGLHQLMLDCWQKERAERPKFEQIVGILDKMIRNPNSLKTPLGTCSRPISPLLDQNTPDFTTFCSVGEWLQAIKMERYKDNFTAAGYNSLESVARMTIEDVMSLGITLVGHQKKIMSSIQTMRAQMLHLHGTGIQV

PLK4 = PLK4 (Homo sapiens, UniProt O00444)
Sequence of PLK4 (O00444 whole entry): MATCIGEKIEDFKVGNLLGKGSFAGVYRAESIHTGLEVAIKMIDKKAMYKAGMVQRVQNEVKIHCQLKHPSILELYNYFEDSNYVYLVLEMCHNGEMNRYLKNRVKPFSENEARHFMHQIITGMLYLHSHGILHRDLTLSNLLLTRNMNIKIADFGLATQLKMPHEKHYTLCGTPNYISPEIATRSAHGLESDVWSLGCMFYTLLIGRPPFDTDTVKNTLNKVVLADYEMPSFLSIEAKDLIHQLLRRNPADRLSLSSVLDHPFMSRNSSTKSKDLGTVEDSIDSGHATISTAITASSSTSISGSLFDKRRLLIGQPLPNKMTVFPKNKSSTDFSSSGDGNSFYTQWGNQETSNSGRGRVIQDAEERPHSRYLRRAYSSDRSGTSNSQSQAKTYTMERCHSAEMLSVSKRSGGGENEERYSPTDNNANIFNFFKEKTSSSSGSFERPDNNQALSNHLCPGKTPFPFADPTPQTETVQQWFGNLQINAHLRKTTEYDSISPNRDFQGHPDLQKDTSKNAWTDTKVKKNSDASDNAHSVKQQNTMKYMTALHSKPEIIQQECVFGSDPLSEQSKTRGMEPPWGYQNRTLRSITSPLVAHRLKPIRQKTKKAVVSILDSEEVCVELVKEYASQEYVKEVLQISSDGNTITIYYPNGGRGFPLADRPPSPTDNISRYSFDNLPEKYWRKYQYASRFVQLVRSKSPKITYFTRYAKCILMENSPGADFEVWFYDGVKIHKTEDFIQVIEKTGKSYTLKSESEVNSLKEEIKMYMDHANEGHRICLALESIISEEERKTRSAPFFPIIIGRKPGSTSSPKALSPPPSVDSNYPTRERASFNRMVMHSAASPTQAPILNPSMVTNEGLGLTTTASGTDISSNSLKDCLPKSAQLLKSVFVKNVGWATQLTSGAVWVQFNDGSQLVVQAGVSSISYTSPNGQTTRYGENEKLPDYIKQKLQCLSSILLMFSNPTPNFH

MELK = MELK (Homo sapiens, UniProt Q14680)
MAP4K2 = MAP4K2 (Homo sapiens, UniProt Q12851)
FGR = FGR (Homo sapiens, UniProt P09769)
TNIK = TNIK (Homo sapiens, UniProt Q9UKE5)
p38-delta = target: T4, p38-delta (Homo sapiens, UniProt O15264)
T4 construct: gene MAPK13

[2] = target: T5, RSK2(Kin.Dom.2-C-terminal) (Homo sapiens, UniProt P51812)
T5 construct: gene RPS6KA3; Kin.Dom.2-C-terminal

KIT(V559D) = KIT(V559D) (Homo sapiens, UniProt P10721, V559D)
Sequence of KIT(V559D) (P10721 whole entry V559D): as the sequence (P10721 whole entry L576P) above, with V559D, P576L counted along it
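Note: KINOMEscan kinase panel binding assay, signal normalized between DMSO as 100% and a positive control compound as 0%.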

Sequence of BLK (P51451 whole entry): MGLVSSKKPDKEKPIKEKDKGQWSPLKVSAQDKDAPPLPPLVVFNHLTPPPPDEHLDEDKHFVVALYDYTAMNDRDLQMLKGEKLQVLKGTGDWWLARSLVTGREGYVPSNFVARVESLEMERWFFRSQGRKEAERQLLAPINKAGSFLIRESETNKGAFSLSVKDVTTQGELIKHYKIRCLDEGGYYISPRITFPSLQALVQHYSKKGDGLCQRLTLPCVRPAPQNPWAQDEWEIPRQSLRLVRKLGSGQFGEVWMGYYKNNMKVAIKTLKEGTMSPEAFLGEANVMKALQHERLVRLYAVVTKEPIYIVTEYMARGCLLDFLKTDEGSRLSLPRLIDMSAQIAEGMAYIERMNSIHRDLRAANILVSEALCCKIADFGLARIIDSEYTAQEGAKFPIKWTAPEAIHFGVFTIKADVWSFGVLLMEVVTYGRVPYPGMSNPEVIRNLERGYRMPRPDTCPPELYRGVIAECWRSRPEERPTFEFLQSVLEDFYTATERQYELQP

## Cc1cnc2nc1Nc1cccc(c1)COCc1cc(ccc1OCCN1CCCC1)N2 [Compound 1]
BLK
  remaining binding at 0.1 µM: 76%
MAP4K3
  remaining binding at 0.1 µM: 83%
PKN1
  remaining binding at 0.1 µM: 93%
SRMS
  remaining binding at 0.1 µM: 75%
RIOK1
  remaining binding at 0.1 µM: 75%
FGFR1
  remaining binding at 0.1 µM: 89%
CDKL2
  remaining binding at 0.1 µM: 95%
MAK
  remaining binding at 0.1 µM: 100%
PIM1
  remaining binding at 0.1 µM: 100%
[1]
  remaining binding at 0.1 µM: 27%
DLK
  remaining binding at 0.1 µM: 43%
CSNK1E
  remaining binding at 0.1 µM: 70%
AAK1
  remaining binding at 0.1 µM: 81%
CDK11
  remaining binding at 0.1 µM: 96%
KIT(L576P)
  remaining binding at 0.1 µM: 14%
HIPK1
  remaining binding at 0.1 µM: 66%
EPHA7
  remaining binding at 0.1 µM: 98%
PLK4
  remaining binding at 0.1 µM: 96%
MELK
  remaining binding at 0.1 µM: 100%
MAP4K2
  remaining binding at 0.1 µM: 78%
FGR
  remaining binding at 0.1 µM: 100%
TNIK
  remaining binding at 0.1 µM: 80%
p38-delta
  remaining binding at 0.1 µM: 100%
[2]
  remaining binding at 0.1 µM: 87%
KIT(V559D)
  remaining binding at 0.1 µM: 51%
